# Experimental data reported in PMC3386930, “Altering APP Proteolysis: Increasing sAPPalpha Production by Targeting Dimerization of the APP Ectodomain” (PLoS ONE, 2012).
# “Also recorded” adds a separate entry of the source.
# Experiments:
# [1] = biological target: MBP-eAPP_(230–624), maltose binding protein fusion protein containing residues 230–624 (UniProt P05067); assay: small-angle X-ray scattering (SAXS); 150 µl MBP-eAPP230-624 (≈0.5 mg/ml) diluted with 400 µl of peptide solution, 20 minutes on ice, concentrated to 50 µl with 10-kDa cutoff concentrators
# [2] = biological target: TRX-eAPP_(290–624), thioredoxin fusion protein containing residues 290–624 of APP695 (UniProt P05067); assay: small-angle X-ray scattering (SAXS); eAPP fragment incubated on ice with Aβ oligomers or Aβ fragments (peptide less than 10 µM), concentrated and purified on Superdex S200 in 20 mM Tris pH 7.4, 100 mM sodium chloride, 2 mM EDTA
# [3] = biological target: eAPP_(230–624), fragment of the APP ectodomain containing residues 230–624 (UniProt P05067); assay: as above
# MBP-eAPP230–624 [4] = assay: Small-angle X-ray scattering (SAXS) of MBP-eAPP230–624 complexes; format: binding; settings: 50 µM compound, 1:12 molar ratio, PBS plus 2% DMSO
# Experimental: (§1) The excitation spectra of the intrinsic tryptophan fluorescence were recorded using either a Shimadzu RF-530PC (Shimadzu Scientific Instruments) or a Spectramax XPS spectrophotometer (Molecular Devices).
# (§2) The samples were incubated on ice for 20 minutes and then concentrated to 50 µl with 10-kDa cutoff concentrators (Millipore). […] Samples of the filtrates were used for buffer subtraction.
# (§3) The samples were then concentrated and purified with a Superdex S200 size-exclusion column with 20 mM Tris pH 7.4, 100 mM sodium chloride and 2 mM EDTA. Samples of the protein buffer from the size-exclusion columns were used for buffer subtraction.
# (§4) Data collection and processing
# (§5) Small-angle X-ray scattering data were collected using protein concentrations in the range of 0.5–3 mg/ml and an X-ray wavelength of 1.11 Å at beam line 12.3.1 (Advanced Light Source). Data were integrated with software customized for the beam line and processed with the program PRIMUS [30]. The program GNOM [31] was used to calculate the maximum dimension and the radius of gyration and to estimate the intensity of the scattering at zero angle for higher concentration samples.
# eAPP230–624 [5] = biological target: T1, eAPP230–624 (Homo sapiens, UniProt P05067); assay: Intrinsic tryptophan fluorescence of eAPP230–624; format: binding
# T1 construct: made in house
# Experimental: as §1
# Full emission spectra were measured with the Shimadzu RF-530PC using a 3 ml quartz cuvette, a 5 nm slit width and protein concentrations between 0.2–0.6 µM. […] For these larger dilutions, control titrations with the protein alone were used to generate a scaling matrix where the scale factor was both a function of wavelength and dilution. […] A similar scaling matrix was used to correct for the effect of dilution with DMSO. […] All titrations were performed at 24°C. The oligomers were stored on ice during the experiment.
# These concentrations are analogous to concentrations used to create complexes for the small angle x-ray scattering analysis. The incubated material was diluted with PBS so that the final protein concentration was 0.5 µM. The spectra were recorded with the Shimadzu […].
# For experiments with the Spectromax XPS plate reader, an excitation wavelength of 295 nm was used. This excitation wavelength was chosen to minimize both the contribution of tyrosine in the protein and the background fluorescence of the 96-well plates (Costar #3915).
# For the quenching experiments, the data were analyzed by constructing Stern-Volmer plots, F0/F vs. Q, where Fo is the intensity of the fluorescence at zero concentration, F is the intensity of the fluorescence, and Q is the concentration of the quenching agent. When quenching is through either a static (binding) or dynamic (collisional) mechanism this plot is linear and follows the equation: [drawing 1] (1) where Ksv is the quenching constant. When both processes are present the Stern-Volmer plot is quadratic: [drawing 2] (2) where KD is the equilibrium constant associated with dynamic quenching and Ks is the equilibrium constant associated with static quenching. All parameters were determined using PRISM (GraphPad) and the appropriate non-linear curve fitting routine.
# The centroid wavelength (λc) was calculated as: [drawing 3] (3) where I(λi) is the intensity observed for the wavelength (λi). The range of wavelengths was 310–390 nm.
# eAPP230–624 [6] = biological target: T1, eAPP230–624; assay: Difference absorption spectra of eAPP230–624; format: binding; settings: 1:6 molar ratio, 8.3 µM eAPP230–624, 50 µM compound, PBS plus 2% DMSO
# 7W-CHO cells = assay: sAPPα and sAPPβ production in 7W-CHO cells (AlphaLISA); format: cell-based; settings: 1 µM compound, 24 hours, 50,000 cells per well, vs 0.01% DMSO
# Experimental: (§6) B103 rat neuroblastoma cells and 7W-CHO cells were seeded at 100,000 or 50,000 cells per well in a 96-well plate and allowed to grow for one day. The B103 rat neuroblastoma cells stably expressing human wild-type APP were a kind gift from Dr. Lennart Mucke (J. David Gladstone Institute of Neurological Disease and University of California, San Francisco). The 7W-CHO cells were a kind gift from Dr. Edward Koo (Department of Molecular Pathology, University of California, San Diego). The cell culture medium was then changed and the cells treated with 1 µM disulfiram, 1 µM sulfiram, or 0.01% DMSO (control). After 24 hours, the amount of sAPPα and sAPPβ produced in the medium was quantified using the AL231C and AL232C AlphaLISA kits from Perkin Elmer, respectively, modified using a custom biotinylated APP antibody.
# A) Effect of treatment with disulfiram and sulfiram on sAPPα and Aβ production in 7W-CHO cells. 7W-CHO cells were seeded at 50,000 cells per well in a 96-well plate and allowed to grow for one day. The cell culture medium was then changed and the cells treated with 1 µM disulfiram, 1 µM sulfiram, or 0.01% DMSO (control). After 24 hours, the amount of sAPPα and sAPPβ produced in the medium was quantified using the AL231C and AL232C AlphaLISA kit from Perkin Elmer, modified using a custom biotinylated human APP antibody. B) Effect on the ratio of α to β cleavage in 7W-CHO cells, as calculated by dividing the amount of sAPPα to sAPPβ produced by the 50,000 7W-CHO cells during one day under the effect of either disulfiram, sulfiram or a DMSO control. C) Effect on the ratio of α to β cleavage in B103 cells. B103 neuroblastoma cells were seeded at 100,000 cells per well in a 96-well plate and allowed to grow for one day. The cell culture medium was then changed and the cells treated with 1 µM disulfiram, 1 µM sulfiram, or 0.01% DMSO (Control). After 24 hours, the amount of sAPPα and sAPPβ produced in the medium was quantified using the same modified AL231C and AL232C AlphaLISA kit from Perkin Elmer. The ratio of α to β cleavage was calculated by dividing the amount of sAPPα to sAPPβ produced by the 100,000 B103 cells during one day under the effect of the disulfiram, sulfiram or DMSO control.
# [7] = system: B103 rat neuroblastoma cells stably expressing human wild-type APP; assay: sAPPα and sAPPβ production in B103 cells (AlphaLISA); format: cell-based; settings: 1 µM compound, 24 hours, 100,000 cells per well, vs 0.01% DMSO
# Experimental: as §6
# A) Effect of treatment with disulfiram and sulfiram on sAPPα and Aβ production in 7W-CHO cells. […] After 24 hours, the amount of sAPPα and sAPPβ produced in the medium was quantified using the AL231C and AL232C AlphaLISA kit from Perkin Elmer, modified using a custom biotinylated human APP antibody. B) Effect on the ratio of α to β cleavage in 7W-CHO cells, as calculated by dividing the amount of sAPPα to sAPPβ produced by the 50,000 7W-CHO cells during one day under the effect of either disulfiram, sulfiram or a DMSO control. […]
# MBP-eAPP230–624 [8] = assay: ADAM10 cleavage of MBP-eAPP230–624 in vitro (sAPPα AlphaLISA); format: biochemical; settings: 1 uM disulfiram 15 minutes, then ADAM10 60 minutes
# Experimental: Then, ADAM10 was added for 60 minutes. Time points were taken every 20 minutes.
# eAPP230–624 [9] = biological target: T1, eAPP230–624; assay: Small-angle X-ray scattering (SAXS) of eAPP230–624 complexes; format: binding
# Experimental: as §2, §3, §4, §5
# [10] = Size-exclusion chromatography of Aβ fragments; format: physicochemical; settings: Superdex 75 column, PBS, indicates smaller dimers or monomers
# From the text: The arrow indicates the direction of shift of the fluorescence peak. […] The black line indicates the starting concentration and the blue line indicates the final concentration. The arrow indicates the direction of shift of the fluorescence peak.
compound,measurement,setting,value
Aβ1-28 (peptide),MWcalc/MWseq (apparent mass of the sample over the sequence mass of the eAPP fragment),[1],1.2
same,MWcalc/MWseq (apparent mass of the sample over the sequence mass of the eAPP fragment),[2],1.5
same,MWcalc/MWseq (apparent mass of the sample over the sequence mass of the eAPP fragment),[3],0.9
CCN(CC)C(=S)SSC(=S)N(CC)CC [Disulfiram],effect on monomer-dimer equilibrium / dimerization of MBP-eAPP230–624 (in words),MBP-eAPP230–624 [4],inhibits dimerization of MBP-eAPP230–624
same,effect on monomer-dimer equilibrium / dimerization of MBP-eAPP230–624 (in words),MBP-eAPP230–624 [4]; listed as disulfiram,significantly affected the monomer-dimer equilibrium of MBP-eAPP230–624 in favor of the monomer; also recorded: mixture of monomer and dimer
same,fluorescence peak wavelength (shifted from 344 nm),"eAPP230–624 [5]; 0.64 µM eAPP230–624, disulfiram 0–130 µM",357 nm
same,quenching of intrinsic fluorescence (in words),"eAPP230–624 [5]; 0.64 µM eAPP230–624, disulfiram 0–130 µM, sulfiram 0–320 µM, Shimadzu RF-530PC",significantly quenched the intrinsic fluorescence
same,Stern-Volmer slope relative to sulfiram,"eAPP230–624 [5]; 0.64 µM eAPP230–624, disulfiram vs sulfiram",1.6 times
same,relative binding affinity for eAPP230–624 (in words),"eAPP230–624 [5]; inferred from Stern-Volmer slopes, disulfiram vs sulfiram",higher binding affinity for eAPP230–624 than sulfiram
same,effect on dimerization of the ectodomain fragment (in words),"eAPP230–624 [5]; intrinsic fluorescence, confirmed with SAXS",inhibit dimerization of the ectodomain fragment
same,change in extinction coefficient,eAPP230–624 [6],significant drop in the extinction coefficient
same,sAPPα production / α-cleavage of APP (in words),7W-CHO cells,increase sAPPα production
same,sAPPα production / α-cleavage of APP (in words),7W-CHO cells; listed as disulfiram,significantly enhance the production of sAPPα; also recorded: enhance α-cleavage significantly
same,sAPPα production / α-cleavage of APP (in words),[7],significantly enhance the production of sAPPα; also recorded: enhance α-cleavage significantly
same,accessibility of the α-cleavage site to ADAM10 cleavage (in words),MBP-eAPP230–624 [8],increase the accessibility of the α-cleavage site near lysine 612 to ADAM10 cleavage
Aβ1-28: Aβ fragment,MWcalc/MWseq,"eAPP230–624 [9]; SAXS relative mass, MWseq 45-kDa for eAPP230–624, max. error ±0.2, monomer around 1.3, protein alone 2.0",0.9
same,Dmax,"eAPP230–624 [9]; SAXS, maximum dimension, GNOM, max. estimated error ±10 Å, eAPP230–624 with peptide",170 Å
same,Rg,"eAPP230–624 [9]; SAXS, radius of gyration, GNOM, max. estimated error ±2 Å, eAPP230–624 with peptide",46 Å
same,inhibition of eAPP dimerization (in words),eAPP230–624 [5]; legend of titration of 0.64 µM eAPP230–624 with 0–60 µM fragment,inhibit eAPP dimerization
same,pattern of changes in the intrinsic fluorescence (in words),"eAPP230–624 [5]; titration of 0.64 µM eAPP230–624, 345 nm",acted like Aβ1-40 dimers in terms of the changes in the intrinsic fluorescence
same,elution later than the 7-kDa peak,[10],0.5 mls
